For `CCN(CC)CC(=O)NC1c2ccccc2Oc2ccccc21`, the logP was 3.49. Compound `COc1ccc2c(c1)C(NC(=O)N(CCCl)N=O)c1ccccc1O2` (stereo unspecified) has a logP of 4.48. In the case of `O=NN(CCCl)C(=O)NCC1c2ccccc2Oc2ccccc21`, the logP is reported as 4.13. Compound `Cc1cc(C)c2c(c1)C(NC(=O)N(CCCl)N=O)c1ccccc1O2` (stereo unspecified) has a logP of 5.19. With `O=NN(CCCl)C(=O)NCCSC1c2ccccc2Oc2ccccc21` the logP was 5. Work on `CCOc1ccc2c(c1)C(NC(=O)N(CCCl)N=O)c1ccccc1O2` (stereo unspecified) yielded a logP of 4.86. Compound `O=NN(CCCl)C(=O)NC1c2ccccc2Sc2ccccc21` has a logP of 4.59. In the case of `Cc1ccc2c(c1)C(NC(=O)N(CCCl)N=O)c1ccccc1O2` (stereo unspecified), the logP is reported as 4.65. `Cc1cccc2c1Oc1ccccc1C2NC(=O)N(CCCl)N=O` (stereo unspecified) gave a logP of 4.77. `CCN(CC)CC(=O)NC1c2ccccc2Sc2c(C)cccc21` (stereo unspecified) gave a logP of 4.24. `Cc1ccc2c(c1)C(NC(=O)N(CCCl)N=O)c1ccccc1S2` (stereo unspecified) showed a logP of 5.01. `COc1cccc2c1Oc1ccccc1C2NC(=O)N(CCCl)N=O` (stereo unspecified) showed a logP of 3.68. With `Cc1cccc2c1Oc1ccccc1C2NC(=O)CCN(C)C` (stereo unspecified) the logP was 2.61. For `Cc1cccc2c1Sc1ccccc1C2NC(=O)N(CCCl)N=O` (stereo unspecified), the logP was 5.03. In the case of `Cc1cccc2c1Oc1ncccc1C2NC(=O)CN(C)C` (stereo unspecified), the logP is reported as 2.19. In the case of `O=NN(CCCl)C(=O)NC1c2ccccc2Oc2ccccc21`, the logP is reported as 4.17.
